Assay results reported in patent publication US20080305500A1, “NOVEL CELL-BASED ASSAYS FOR IDENTIFYING ENHANCERS OR INHIBITORS OF T1R TASTE RECEPTORS (T1R2/T1R3 SWEET) AND UMAMI (T1R1/T1R3 UMAMI) TASTE RECEPTORS” (Senomyx, Inc., priority 2007, published 2008).
Like-named read-outs stand apart in the source and are kept apart here.

Target: T1, human sweet receptor (T1R2 and T1R3) (Homo sapiens, UniProt Q7RTX0+Q8TE23)
T1 construct: expressed in transfected cells; host or cells: HEK293 cells co-expressing Galpha15
T1 sequence (Q8TE23 20-839): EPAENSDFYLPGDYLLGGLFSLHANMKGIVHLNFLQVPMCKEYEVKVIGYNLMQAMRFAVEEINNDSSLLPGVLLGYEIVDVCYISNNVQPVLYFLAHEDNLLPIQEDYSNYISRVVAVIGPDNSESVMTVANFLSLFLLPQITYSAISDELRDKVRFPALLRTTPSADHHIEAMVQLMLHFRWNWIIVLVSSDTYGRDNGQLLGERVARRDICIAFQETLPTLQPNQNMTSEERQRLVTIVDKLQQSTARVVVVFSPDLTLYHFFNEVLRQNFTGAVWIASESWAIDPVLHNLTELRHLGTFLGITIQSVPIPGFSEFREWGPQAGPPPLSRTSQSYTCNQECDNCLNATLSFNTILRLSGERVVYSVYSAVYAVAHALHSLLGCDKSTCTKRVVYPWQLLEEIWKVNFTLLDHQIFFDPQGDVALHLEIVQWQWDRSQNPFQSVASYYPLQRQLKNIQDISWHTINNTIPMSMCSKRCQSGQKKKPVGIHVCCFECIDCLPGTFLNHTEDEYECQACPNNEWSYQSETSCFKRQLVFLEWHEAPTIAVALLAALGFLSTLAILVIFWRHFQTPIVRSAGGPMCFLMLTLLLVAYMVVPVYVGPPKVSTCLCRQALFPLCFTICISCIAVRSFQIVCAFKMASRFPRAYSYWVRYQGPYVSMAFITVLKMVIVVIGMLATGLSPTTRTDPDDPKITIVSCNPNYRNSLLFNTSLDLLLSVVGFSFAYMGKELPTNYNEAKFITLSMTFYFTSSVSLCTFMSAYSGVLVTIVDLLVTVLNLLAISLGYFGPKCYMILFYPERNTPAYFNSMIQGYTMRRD
T1 sequence (Q7RTX0 21-852): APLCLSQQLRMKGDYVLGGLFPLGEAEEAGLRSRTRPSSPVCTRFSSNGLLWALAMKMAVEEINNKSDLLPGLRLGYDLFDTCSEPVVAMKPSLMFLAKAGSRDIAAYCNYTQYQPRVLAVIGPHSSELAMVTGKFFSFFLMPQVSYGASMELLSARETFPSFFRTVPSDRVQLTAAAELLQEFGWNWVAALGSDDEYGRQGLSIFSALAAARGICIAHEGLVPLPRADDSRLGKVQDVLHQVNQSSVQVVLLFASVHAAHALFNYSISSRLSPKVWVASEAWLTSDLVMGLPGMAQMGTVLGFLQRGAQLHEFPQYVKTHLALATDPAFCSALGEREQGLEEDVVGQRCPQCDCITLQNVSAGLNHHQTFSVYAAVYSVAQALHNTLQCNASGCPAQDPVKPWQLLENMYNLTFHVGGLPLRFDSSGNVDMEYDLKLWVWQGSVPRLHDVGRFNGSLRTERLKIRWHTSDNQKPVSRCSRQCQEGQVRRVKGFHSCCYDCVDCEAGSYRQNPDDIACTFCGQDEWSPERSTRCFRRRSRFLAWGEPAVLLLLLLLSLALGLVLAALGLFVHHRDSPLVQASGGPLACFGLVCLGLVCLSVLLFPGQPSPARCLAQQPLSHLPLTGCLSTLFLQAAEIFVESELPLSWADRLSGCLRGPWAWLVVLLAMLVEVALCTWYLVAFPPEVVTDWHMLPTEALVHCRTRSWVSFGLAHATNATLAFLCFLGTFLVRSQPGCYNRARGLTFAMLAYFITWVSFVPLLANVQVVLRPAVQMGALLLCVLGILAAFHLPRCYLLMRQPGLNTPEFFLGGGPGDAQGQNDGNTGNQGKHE
Assay: Calcium imaging (Fluo3AM/FLIPR) sweet receptor enhancer assay in hT1R2/hT1R3-HEK293 Galpha15 cells, with pre-incubation step
Format: cell-based
Conditions: read-out: potency of Sucralose (dose-response)
Experimental: In the subject assays the receptor or cells expressing same will be placed in a suitable environment that facilitates the receptor or cells to be used in the particular assay. For instance, in the exemplified calcium imaging assays cells which express hT1R2/hT1R3-HEK293 G[…]15 cells were seeded in 384-well-clear bottom plates (Fisher) at a density of ˜50,000 cells/well and grown overnight at 37 degrees C. However, it is anticipated that these cell density conditions and/or cell culture devices potentially may be altered.
On the day of the experiment, cells were loaded with a commercially available calcium indicator dye Fluo3AM (2 uM) (Invitrogen) in D-PBS (Invitrogen) using a Multidrop (Titertek). (Again while Fluo3AM is exemplified it is anticipated that other known and available calcium indicators can be substituted therefore). […] After 30 minutes of rest time at room temperature, Fluo3AM-loaded cell plate, a compound plate and a sweetener plate were loaded into a Fluorometric Imaging Plate Reader (FLIPR, Molecular Devices). […] Imaging was initiated with the acquisition of the baseline fluorescence for a period of 7 to 10 seconds, and then cells were stimulated on line with addition of 25 µl/well of the compound plate (pre-incubation step). […]

Structure (SMILES): OC[C@H]1O[C@H](O[C@]2(CCl)O[C@H](CCl)[C@@H](O)[C@@H]2O)[C@H](O)[C@@H](O)[C@H]1Cl [Sucralose]
- EC50 (cells pre-incubated with S2423 (50 uM or 25 uM final)): 11 µM
- EC50 (without S2423): 53 µM
